Reference: the NIST ThermoML archive (doi:10.1021/acs.jced.8b00011)
Where “and” joins values, the source holds several entries; their conditions need not be identical. Equal values may be shown once.

Settings: Liquid; for mass density: Vibrating tube method; for electrical conductivity: electrochemical impedance spectroscopy

CCCCC[P+](CC)(CC)CC.O=S(=O)([N-]S(=O)(=O)C(F)(F)F)C(F)(F)F
Settings	electrical conductivity [S/m]	viscosity
273.15 K, 100 kPa, Concentric cylinders viscometry	–	391.1 mPa·s
273.15 K, 100 kPa, Falling or rolling sphere viscometry	–	396.2 mPa·s and 396 mPa·s
278.15 K, 100 kPa, Concentric cylinders viscometry	–	275.6 mPa·s
278.15 K, 100 kPa, Falling or rolling sphere viscometry	–	278.3 mPa·s and 278.2 mPa·s
283.14 K, 149300 kPa, Frequency=0 MHz	0.0123	–
283.14 K, 174300 kPa, Frequency=0 MHz	0.00927	–
283.15 K, 100 kPa, Concentric cylinders viscometry	–	199.6 mPa·s
283.15 K, 100 kPa, Falling or rolling sphere viscometry	–	201.3 mPa·s and 200.4 mPa·s
283.15 K, 100 kPa, Frequency=0 MHz	0.076	–
283.15 K, 1200 kPa, Frequency=0 MHz	0.0749	–
283.15 K, 3100 kPa, Frequency=0 MHz	0.0728	–
283.15 K, 5100 kPa, Frequency=0 MHz	0.0709	–
283.15 K, 10600 kPa, Falling or rolling sphere viscometry	–	228.6 mPa·s
283.15 K, 15400 kPa, Frequency=0 MHz	0.0618	–
283.15 K, 20500 kPa, Frequency=0 MHz	0.0578	–
283.15 K, 20600 kPa, Falling or rolling sphere viscometry	–	263 mPa·s
283.15 K, 25600 kPa, Frequency=0 MHz	0.054	–
283.15 K, 30300 kPa, Falling or rolling sphere viscometry	–	302.4 mPa·s
283.15 K, 30600 kPa, Frequency=0 MHz	0.0507	–
283.15 K, 40800 kPa, Falling or rolling sphere viscometry	–	352.7 mPa·s
283.15 K, 42000 kPa, Frequency=0 MHz	0.0437	–
283.15 K, 50300 kPa, Frequency=0 MHz	0.0394	–
283.15 K, 50700 kPa, Falling or rolling sphere viscometry	–	398.9 mPa·s
283.15 K, 60900 kPa, Falling or rolling sphere viscometry	–	459.1 mPa·s
283.15 K, 71400 kPa, Falling or rolling sphere viscometry	–	527.1 mPa·s
283.15 K, 74900 kPa, Frequency=0 MHz	0.0294	–
283.15 K, 80400 kPa, Falling or rolling sphere viscometry	–	599.8 mPa·s
283.15 K, 88200 kPa, Falling or rolling sphere viscometry	–	667.7 mPa·s
283.15 K, 94700 kPa, Falling or rolling sphere viscometry	–	740.8 mPa·s
283.15 K, 99800 kPa, Frequency=0 MHz	0.0219	–
283.15 K, 126100 kPa, Frequency=0 MHz	0.016	–
283.16 K, 2100 kPa, Frequency=0 MHz	0.0741	–
283.16 K, 10300 kPa, Frequency=0 MHz	0.0661	–
283.16 K, 199900 kPa, Frequency=0 MHz	0.00703	–
288.15 K, 100 kPa, Concentric cylinders viscometry	–	148 mPa·s
293.15 K, 100 kPa, Concentric cylinders viscometry	–	111.8 mPa·s and 112.2 mPa·s and 112 mPa·s
293.15 K, 100 kPa, Falling or rolling sphere viscometry	–	112.7 mPa·s
298.14 K, 176500 kPa, Frequency=0 MHz	0.0255	–
298.15 K, 100 kPa, Concentric cylinders viscometry	–	86.33 mPa·s
298.15 K, 100 kPa, Falling or rolling sphere viscometry	–	87.05 mPa·s and 87.04 mPa·s and 87.45 mPa·s
298.15 K, 100 kPa, Frequency=0 MHz	0.165	–
298.15 K, 600 kPa, Falling or rolling sphere viscometry	–	86.57 mPa·s
298.15 K, 3400 kPa, Frequency=0 MHz	0.159	–
298.15 K, 5100 kPa, Frequency=0 MHz	0.155	–
298.15 K, 9800 kPa, Frequency=0 MHz	0.146	–
298.15 K, 10500 kPa, Falling or rolling sphere viscometry	–	99.67 mPa·s
298.15 K, 15000 kPa, Frequency=0 MHz	0.138	–
298.15 K, 20500 kPa, Falling or rolling sphere viscometry	–	114.4 mPa·s
298.15 K, 20900 kPa, Frequency=0 MHz	0.129	–
298.15 K, 25800 kPa, Frequency=0 MHz	0.122	–
298.15 K, 30600 kPa, Falling or rolling sphere viscometry	–	130.4 mPa·s
298.15 K, 31200 kPa, Frequency=0 MHz	0.114	–
298.15 K, 40500 kPa, Falling or rolling sphere viscometry	–	148 mPa·s
298.15 K, 41000 kPa, Frequency=0 MHz	0.102	–
298.15 K, 50500 kPa, Falling or rolling sphere viscometry	–	167.4 mPa·s
298.15 K, 51100 kPa, Frequency=0 MHz	0.0914	–
298.15 K, 56700 kPa, Frequency=0 MHz	0.0859	–

Settings	electrical conductivity	mass density
273.15 K, 100 kPa	–	1323.74 kg/m3 and 1324 kg/m3 and 1323.6 kg/m3
273.15 K, 101.33 kPa	0.0399 S/m and 0.04 S/m	–
278.15 K, 100 kPa	–	1319.92 kg/m3 and 1319.6 kg/m3 and 1319.31 kg/m3
278.15 K, 101.33 kPa	0.0556 S/m and 0.0557 S/m	–
283.15 K, 100 kPa	–	1315.3 kg/m3 [middle of 4 runs]
283.15 K, 101.33 kPa	0.0756 S/m and 0.076 S/m and 0.0755 S/m	–
288.15 K, 100 kPa	–	1311.35 kg/m3 and 1311 kg/m3 and 1310.72 kg/m3
288.16 K, 101.33 kPa	0.1 S/m	–
293.15 K, 100 kPa	–	1306.8 kg/m3 [middle of 4 runs]
293.15 K, 101.33 kPa	0.13 S/m	–
298.15 K, 100 kPa	–	1302.45 kg/m3 [middle of 6 runs]
298.15 K, 101.33 kPa	0.166 S/m and 0.165 S/m	–
298.15 K, 1000 kPa	–	1302.82 kg/m3
298.15 K, 5000 kPa	–	1305.75 kg/m3
298.15 K, 10000 kPa	–	1309.28 kg/m3
298.15 K, 15000 kPa	–	1312.76 kg/m3
298.15 K, 20000 kPa	–	1316.13 kg/m3
298.15 K, 25000 kPa	–	1319.42 kg/m3
298.15 K, 30000 kPa	–	1322.62 kg/m3
298.15 K, 35000 kPa	–	1325.82 kg/m3
298.15 K, 40000 kPa	–	1328.9 kg/m3
298.15 K, 45000 kPa	–	1331.96 kg/m3
298.15 K, 50010 kPa	–	1334.83 kg/m3
